Measured values taken from the CheMixHub viscosity set.
“And” between values parts separate entries of the source, which are not always exact repeats. Equal entries are not always repeated. ± gives the uncertainty stated by the source.

C1CCCCC1 showed a viscosity (293.15 K, 101 kPa) of 0.972 ± 0.019 mPa·s, a viscosity (293.15 K, 101.3 kPa) of 0.986 ± 0.007 mPa·s and a viscosity (298 K, 101 kPa) of 0.99 ± 0.02 mPa·s. For the same compound, the viscosity (298 K, 101.3 kPa) was 0.883 ± 0.009 mPa·s, the viscosity (298.15 K, 100 kPa) was 0.8956 ± 0.11 mPa·s and 0.8961 ± 0.01 mPa·s and the viscosity (298.15 K, 101.3 kPa) was 0.905 ± 0.007 mPa·s and 0.8862 ± 0.024 mPa·s. It also gave a viscosity (303 K, 101.33 kPa) of 0.8141 ± 0.019 mPa·s, a viscosity (303.15 K, 100 kPa) of 0.82 ± 0.07 mPa·s and a viscosity (303.15 K, 101.32 kPa) of 0.826 ± 0.004 mPa·s. The viscosity (303.75 K, 101.33 kPa) was 0.8403 ± 0.01 mPa·s, the viscosity (307.35 K, 101.33 kPa) was 0.76 ± 0.011 mPa·s and the viscosity (307.4 K, 101.33 kPa) was 0.309 ± 0.003 mPa·s. The viscosity (308 K, 101 kPa) was 0.86 ± 0.02 mPa·s, the viscosity (308.15 K, 100 kPa) was 0.7316 ± 0.088 mPa·s and the viscosity (308.15 K, 101.3 kPa) was 0.7483 ± 0.021 mPa·s and 0.7592 ± 0.013 mPa·s. It also gave a viscosity (312.75 K, 101.33 kPa) of 0.7277 ± 0.0086 mPa·s, a viscosity (313 K, 101.33 kPa) of 0.7045 ± 0.017 mPa·s and a viscosity (313.15 K, 100 kPa) of 0.7 ± 0.06 mPa·s. The viscosity (313.15 K, 101 kPa) was 0.687 ± 0.014 mPa·s and 0.6934 ± 0.018 mPa·s, the viscosity (313.15 K, 101.3 kPa) was 0.7003 ± 0.0064 mPa·s and 0.6886 ± 0.019 mPa·s and the viscosity (313.15 K, 101.33 kPa) was 0.682 ± 0.018 mPa·s and 0.6995 ± 0.0069 mPa·s. For the same compound, the viscosity (318 K, 101.3 kPa) was 0.6338 ± 0.024 mPa·s and 0.6445 ± 0.024 mPa·s, the viscosity (318 K, 101.33 kPa) was 0.6338 ± 0.039 mPa·s and the viscosity (318.15 K, 101 kPa) was 0.649 ± 0.007 mPa·s and 0.648 ± 0.014 mPa·s and 0.655 ± 0.007 mPa·s. For the same compound, the viscosity (321.15 K, 101.32 kPa) was 0.5964 ± 0.011 mPa·s, the viscosity (322.15 K, 101.32 kPa) was 0.5901 ± 0.011 mPa·s and the viscosity (323 K, 101 kPa) was 0.6023 ± 0.0043 mPa·s and 0.6009 ± 0.0039 mPa·s. The viscosity (323 K, 101.33 kPa) was 0.6126 ± 0.015 mPa·s, the viscosity (323.15 K, 100 kPa) was 0.6074 ± 0.0069 mPa·s and 0.6 ± 0.05 mPa·s and 0.6077 ± 0.017 mPa·s and the viscosity (323.15 K, 101 kPa) was 0.607 ± 0.012 mPa·s. The viscosity (323.15 K, 101.32 kPa) was 0.5842 ± 0.011 mPa·s.
CC(=O)OC(C)C(C)C (stereo not given) showed a viscosity (298.15 K, 101.33 kPa) of 0.795 ± 0.021 mPa·s, a viscosity (303.15 K, 101.33 kPa) of 0.74 ± 0.019 mPa·s and a viscosity (308.15 K, 101.33 kPa) of 0.69 ± 0.018 mPa·s.
In the case of CC(CC(C)(C)C)CP(=O)([O-])CC(C)CC(C)(C)C.CCCC[P+](C)(CCCC)CCCC (stereo not given), the viscosity (323.15 K, 101 kPa) is reported as 283 ± 13 mPa·s.
In the case of CCC(C)=O, the viscosity (293.15 K, 100 kPa) is reported as 0.4 ± 0.04 mPa·s and 0.4152 ± 0.0064 mPa·s, the viscosity (298 K, 101.3 kPa) is reported as 0.475 ± 0.095 mPa·s and the viscosity (298 K, 101.33 kPa) is reported as 0.3774 ± 0.0053 mPa·s. The viscosity (298.15 K, 100 kPa) was 0.3992 ± 0.0062 mPa·s, the viscosity (298.15 K, 101.3 kPa) was 0.407 ± 0.011 mPa·s and the viscosity (298.15 K, 101.33 kPa) was 0.384 ± 0.0043 mPa·s and 0.46 ± 0.005 mPa·s and 0.39 ± 0.0027 mPa·s. For the same compound, the viscosity (299.15 K, 101.3 kPa) was 0.401 ± 0.011 mPa·s, the viscosity (303.15 K, 101.3 kPa) was 0.364 ± 0.003 mPa·s and the viscosity (303.15 K, 101.33 kPa) was 0.366 ± 0.01 mPa·s. The viscosity (307.35 K, 101.33 kPa) was 0.35 ± 0.008 mPa·s, the viscosity (308.15 K, 100 kPa) was 0.344 ± 0.014 mPa·s and 0.3666 ± 0.0059 mPa·s and the viscosity (308.15 K, 101.33 kPa) was 0.342 ± 0.003 mPa·s and 0.422 ± 0.004 mPa·s. The viscosity (313.15 K, 101.3 kPa) was 0.356 ± 0.0076 mPa·s, the viscosity (318 K, 101.3 kPa) was 0.3429 ± 0.015 mPa·s and the viscosity (318 K, 101.33 kPa) was 0.3417 ± 0.039 mPa·s. For the same compound, the viscosity (318.15 K, 101 kPa) was 0.3194 ± 0.0052 mPa·s and 0.3213 ± 0.0087 mPa·s and 0.322 ± 0.009 mPa·s, the viscosity (318.15 K, 101.3 kPa) was 0.343 ± 0.009 mPa·s and the viscosity (318.15 K, 101.33 kPa) was 0.311 ± 0.003 mPa·s and 0.397 ± 0.004 mPa·s. The viscosity (323.15 K, 100 kPa) was 0.31 ± 0.03 mPa·s and 0.304 ± 0.004 mPa·s and the viscosity (323.15 K, 101.3 kPa) was 0.3327 ± 0.0071 mPa·s.
